# Structures can show the parent of a compound that is named as a salt.
# Key:
# [1] = molecular target: T1, indoleamine 2, 3-dioxygenase (IDO1) (Homo sapiens, UniProt P14902); test: PBMC IDOi assay (kynurenine detection by mass spectrometry); type: cell-based; settings: IFN-γ and LPS stimulated human PBMC, 2 days
# Experimental: (§1) Compounds of the present invention were tested via high-throughput cellular assays utilizing detection of kynurenine via mass spectrometry and cytotoxicity as end-points. For the mass spectrometry and cytotoxicity assays, human peripheral blood mononuclear cells (PBMC) (PB003F; AllCells®, Alameda, Calif.) were stimulated with human interferon-γ (IFN-γ) (Sigma-Aldrich Corporation, St. Louis, Mo.) and lipopolysaccharide from Salmonella minnesota (LPS) (Invivogen, San Diego, Calif.) to induce the expression of indoleamine 2, 3-dioxygenase (IDO1). Compounds with IDO1 inhibitory properties decreased the amount of kynurenine produced by the cells via the tryptophan catabolic pathway. Cellular toxicity due to the effect of compound treatment was measured using CellTiter-Glo® reagent (CTG) (Promega Corporation, Madison, Wis.), which is based on luminescent detection of ATP, an indicator of metabolically active cells.
# (§2) In preparation for the assays, test compounds were serially diluted 3-fold in DMSO from a typical top concentration of 5 mM and plated at 0.5 μL in 384-well, polystyrene, clear bottom, tissue culture treated plates with lids (Greiner Bio-One, Kremsmünster, Austria) to generate 11-point dose response curves. Low control wells (0% kynurenine or 100% cytotoxicity) contained either 0.5 μL of DMSO in the presence of unstimulated (−IFN-γ/−LPS) PBMCs for the mass spectrometry assay or 0.5 μL of DMSO in the absence of cells for the cytotoxicity assay, and high control wells (100% kynurenine or 0% cytotoxicity) contained 0.5 μL of DMSO in the presence of stimulated (+IFN-γ/+LPS) PBMCs for both the mass spectrometry and cytotoxicity assays.
# Frozen stocks of PBMCs were washed and recovered in RPMI 1640 medium (Thermo Fisher Scientific, Inc., Waltham, Mass.) supplemented with 10% v/v heat-inactivated fetal bovine serum (FBS) (Thermo Fisher Scientific, Inc., Waltham, Mass.), and 1× penicillin-streptomycin antibiotic solution (Thermo Fisher Scientific, Inc., Waltham, Mass.). The cells were diluted to 1,000,000 cells/mL in the supplemented RPMI 1640 medium. 50 μL of either the cell suspension, for the mass spectrometry assay, or medium alone, for the cytotoxicity assay, were added to the low control wells, on the previously prepared 384-well compound plates, resulting in 50,000 cells/well or 0 cells/well respectively. IFN-γ and LPS were added to the remaining cell suspension at final concentrations of 100 ng/ml and 50 ng/ml respectively, and 50 μL of the stimulated cells were added to all remaining wells on the 384-well compound plates. The plates, with lids, were then placed in a 37° C., 5% CO2 humidified incubator for 2 days.
# (§3) Following incubation, the 384-well plates were removed from the incubator and allowed to equilibrate to room temperature for 30 minutes. For the cytotoxicity assay, CellTiter-Glo® was prepared according to the manufacturer's instructions, and 40 μL were added to each plate well. After a twenty minute incubation at room temperature, luminescence was read on an EnVision® Multilabel Reader (PerkinElmer Inc., Waltham, Mass.). For the mass spectrometry assay, 10 μL of supernatant from each well of the compound-treated plates were added to 40 μL of acetonitrile, containing 10 μM of an internal standard for normalization, in 384-well, polypropylene, V-bottom plates (Greiner Bio-One, Kremsmünster, Austria) to extract the organic analytes. Following centrifugation at 2000 rpm for 10 minutes, 10 μL from each well of the acetonitrile extraction plates were added to 90 μL of sterile, distilled H2O in 384-well, polypropylene, V-bottom plates for analysis of kynurenine and the internal standard on the RapidFire 300 (Agilent Technologies, Santa Clara, Calif.) and 4000 QTRAP MS (SCIEX, Framingham, Mass.). MS data were integrated using Agilent Technologies' RapidFire Integrator software, and data were normalized for analysis as a ratio of kynurenine to the internal standard. […]
# [2] = molecular target: T1, indoleamine 2, 3-dioxygenase (IDO1); test: HeLa IDOi assay (kynurenine detection by mass spectrometry); type: cell-based; design: human epithelial HeLa cells (CCL-2; host or cells: HeLa cells stimulated with human IFN-γ; settings: IFN-γ stimulated human epithelial HeLa cells, 2 days
# Experimental: as §1, with “epithelial HeLa” for “peripheral blood mononuclear”, “(CCL-2; ATCC®, Manassas, Va.)” for “(PBMC) (PB003F; AllCells®, Alameda, Calif.)”, “Mo.)” for “Mo.) and lipopolysaccharide from Salmonella minnesota (LPS) (Invivogen, San Diego, Calif.)”
# as §2, with “(−IFN-γ) HeLa cells” for “(−IFN-γ/−LPS) PBMCs”, “(+IFN-γ) HeLa cells” for “(+IFN-γ/+LPS) PBMCs”
# Frozen stocks of HeLa cells were washed and recovered in DMEM high glucose medium with HEPES (Thermo Fisher Scientific, Inc., Waltham, Mass.) supplemented with 10% v/v certified fetal bovine serum (FBS) (Thermo Fisher Scientific, Inc., Waltham, Mass.), and 1× penicillin-streptomycin antibiotic solution (Thermo Fisher Scientific, Inc., Waltham, Mass.). The cells were diluted to 100,000 cells/mL in the supplemented DMEM medium. 50 μL of either the cell suspension, for the mass spectrometry assay, or medium alone, for the cytotoxicity assay, were added to the low control wells, on the previously prepared 384-well compound plates, resulting in 5,000 cells/well or 0 cells/well respectively. IFN-γ was added to the remaining cell suspension at a final concentration of 10 nM, and 50 μL of the stimulated cells were added to all remaining wells on the 384-well compound plates. The plates, with lids, were then placed in a 37° C., 5% CO2 humidified incubator for 2 days.
# as §3, with “instructions, and 10 μL were” for “instructions, and 40 μL were”
# T1 sequence (P14902 whole entry): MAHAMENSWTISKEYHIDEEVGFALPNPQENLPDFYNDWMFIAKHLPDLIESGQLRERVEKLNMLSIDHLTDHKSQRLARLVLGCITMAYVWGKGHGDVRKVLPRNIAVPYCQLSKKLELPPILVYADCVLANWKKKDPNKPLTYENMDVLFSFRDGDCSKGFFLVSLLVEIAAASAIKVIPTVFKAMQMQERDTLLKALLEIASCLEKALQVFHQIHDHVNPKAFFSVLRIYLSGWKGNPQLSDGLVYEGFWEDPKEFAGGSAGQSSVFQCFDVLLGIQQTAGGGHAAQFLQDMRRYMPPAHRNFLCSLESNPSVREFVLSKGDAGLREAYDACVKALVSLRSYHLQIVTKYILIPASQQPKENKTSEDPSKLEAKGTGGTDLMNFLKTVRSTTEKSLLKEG
SMILES,EC50 [1],EC50 [2]
"CC(C)CN(CC(C)C)c1ccc(C(C)CC(=O)O)cc1Nc1nc2ccccc2o1 (stereo not drawn) [Example 1, 3-(3-(benzo[d]oxazol-2-ylamino)-4-(diisobutylamino)phenyl)butanoic acid]",631 nM,398 nM
"COc1nccc(Nc2cc(C(C)CC(=O)O)ccc2N(CC(C)C)CC(C)C)n1 (stereo not drawn) [Example 12, 3-(4-(diisobutylamino)-3-((2-methoxypyrimidin-4-yl)amino)phenyl)butanoic acid, 2,2,2-trifluoroacetic acid salt]",158 nM,126 nM
"CC(C)CN(CC(C)C)c1ccc(C(C)CC(=O)O)cc1Nc1ccncc1 (stereo not drawn) [Example 18, 3-(4-(diisobutylamino)-3-(pyridin-4-ylamino)phenyl)butanoic acid]",200 nM,316 nM
"CC(C)CN(c1ccc(C(C)CC(=O)O)cc1NC1CCCCC1)C1CCCCC1 (stereo not drawn) [Example 19, 3-(4-(cyclohexyl(isobutyl)amino)-3-(cyclohexylamino)phenyl)butanoic acid]",50.1 nM,100 nM
"CC(C)CN(c1ccc(C(C)CC(=O)O)cc1NCc1nccs1)C1CCCCC1 (stereo not drawn) [Example 21, 3-(4-(cyclohexyl(isobutyl)amino)-3-((thiazol-2-ylmethyl)amino)phenyl)butanoic acid]",251 nM,501 nM
"CC(C)CN(c1ccc(C(C)CC(=O)O)cc1NCc1cncs1)C1CCCCC1 (stereo not drawn) [Example 22, 3-(4-(cyclohexyl(isobutyl)amino)-3-((thiazol-5-ylmethyl)amino)phenyl)butanoic acid]",100 nM,200 nM
"CC(C)CN(c1ccc(C(C)CC(=O)O)cc1Nc1nc(Br)ns1)C1CCCCC1 (stereo not drawn) [Example 52, 3-(3-((3-bromo-1,2,4-thiadiazol-5-yl)amino)-4-(cyclohexyl(isobutyl)amino)phenyl)butanoic acid]",,79.4 nM
"CC(C)CN(c1ccc([C@H](C)CC(=O)O)cc1NC1CCCCC1)C1CCCCC1 [Example 64, (R)-3-(4-(cyclohexyl(isobutyl)amino)-3-(cyclohexylamino)phenyl)butanoic acid]",63.1 nM,
"CC(C)CN(c1ccc(C(C)CC(=O)O)cc1NC1CCOCC1)C1CCCCC1 (stereo not drawn) [Example 70, 3-(4-(Cyclohexyl(isobutyl)amino)-3-((tetrahydro-2H-pyran-4-yl)amino)phenyl)butanoic Acid]",,126 nM
"CC(C)CN(c1ccc(C(C)CC(=O)O)cc1NC1=N[C@@H](C)CS1)C1CCCCC1 (stereo partly drawn) [Example 73, 3-(4-(cyclohexyl(isobutyl)amino)-3-(((S)-4-methyl-4,5-dihydrothiazol-2-yl)amino)phenyl) butanoic acid]",,398 nM
"CC(C)CN(c1ccc(C(C)CC(=O)O)cc1NC1=N[C@H](C)CS1)C1CCCCC1 (stereo partly drawn) [Example 74, 3-(4-(Cyclohexyl(isobutyl)amino)-3-(((R)-4-methyl-4,5-dihydrothiazol-2-yl)amino)phenyl)butanoic Acid]",,398 nM

# The remaining lines, values ahead:
EC50 [1],EC50 [2],SMILES
50.1 nM,126 nM,"CC(C)CN(c1ccc(C(C)CC(=O)O)cc1NCc1cccs1)C1CCCCC1 (stereo not drawn) [Example 20, 3-(4-(cyclohexyl(isobutyl)amino)-3-((thiophen-2-ylmethyl)amino)phenyl)butanoic acid]"
200 nM,316 nM,"Cc1ccccc1CNc1cc(C(C)CC(=O)O)ccc1N(CC(C)C)C1CCCCC1 (stereo not drawn) [Example 23, 3-(4-(cyclohexyl(isobutyl)amino)-3-((2-methylbenzyl)amino)phenyl)butanoic acid]"
15.8 nM,,"CC(C)CN(c1ccc(C(C)CC(=O)O)cc1Nc1cccc(C(F)(F)F)c1)C1CCCCC1 (stereo not drawn) [Example 65, 3-(4-(cyclohexyl(isobutyl)amino)-3-((3-(trifluoromethyl)phenyl)amino)phenyl)butanoic acid]"
1.26 nM,,"CC(C)CN(c1ccc(C(C)CC(=O)O)cc1Nc1ccc(C(F)(F)F)cc1)C1CCCCC1 (stereo not drawn) [Example 66, 3-(4-(cyclohexyl(isobutyl)amino)-3-((4-(trifluoromethyl)phenyl)amino)phenyl)butanoic acid]"
0.794 nM,,"CC(C)CN(c1ccc(C(C)CC(=O)O)cc1Nc1ccc(C#N)cc1)C1CCCCC1 (stereo not drawn) [Example 67, 3-(3-((4-cyanophenyl)amino)-4-(cyclohexyl(isobutyl)amino)phenyl)butanoic acid]"
3.16 nM,,"CC(C)CN(c1ccc(C(C)CC(=O)O)cc1Nc1ccccc1)C1CCCCC1 (stereo not drawn) [Example 68, 3-(4-(cyclohexyl(isobutyl)amino)-3-(phenylamino)phenyl)butanoic acid]"
,158 nM,"CC(C)CN(c1ccc(C(C)CC(=O)O)cc1NCc1ccccc1)C1CCCCC1 (stereo not drawn) [Example 69, 3-(3-(Benzylamino)-4-(cyclohexyl(isobutyl)amino)phenyl)butanoic Acid]"
,316 nM,"CC(C)CN(c1ccc(C(C)CC(=O)O)cc1NC1=N[C@H](c2ccccc2)CO1)C1CCCCC1 (stereo partly drawn) [Example 72, 3-(4-(Cyclohexyl(isobutyl)amino)-3-(((R)-4-phenyl-4,5-dihydrooxazol-2-yl)amino)phenyl)butanoic Acid]"

# — patent US10472336B2, “Modulators of indoleamine 2,3-dioxygenase” (GlaxoSmithKline Intellectual Property (No.2) Limited, priority 2015, dated 2019)
